The results in this text go back to patent publication US7863444B2, “4-aminopyrrolopyrimidines as kinase inhibitors” (Abbott Laboratories, priority 1997, dated 2011).

Structures are written as SMILES.

Turning to `CC(C)n1cc(-c2ccc(C=O)cc2)c2c(N)ncnc21` [Example 160, 4-(4-amino-7-isopropyl-7H-pyrrolo[2,3-d]pyrimidin-5-yl)benzaldehyde], the melting point – broadly, the temperature, or range, at which the solid turns liquid – lay within 198 to 200 °C.

In the case of `CC(C)n1cc(-c2ccc(Oc3ccccc3)c(CO)c2)c2c(N)ncnc21` [Example 163, 5-[4-amino-7-isopropyl-7H-pyrrolo[2,3-d]pyrimidin-5-yl]-2-phenoxybenzylalcohol], the melting point fell in the range of 92 to 94 °C.

`NCc1c(-c2ccc(Oc3ccccc3)cc2)c2c(N)ncnc2n1C1CCCC1` [Example 165, 6-aminomethyl-7-cyclopentyl-5-(4-phenoxyphenyl)-7H-pyrrolo[2,3-d]pyrimidin-4-ylamine] returned a melting point of 196.5 to 197.5 °C.

`CC(C)(C)n1cc(-c2ccc(N(C=O)c3ccccc3)cc2)c2cncnc21` [Example 166, 7-tertbutyl-5-(N-formyl-4-phenylaminophenyl)pyrrolo[2,3-d]pyrimidine]: the melting point fell in the range of 163 to 164 °C.

For the compound `Nc1ncnc2c1c(-c1ccc(Oc3ccc(OCCO)cc3)cc1)cn2CCO` [Example 169, 7-(2-Hydroxyethyl)-5-{4-[4-(2-hydroxyethoxy)phenoxy]phenyl}pyrrolo[2,3-d]-pyrimidin-4-ylamine], the melting point lay in the range of 166 to 166.5 °C.

`CC(C)S(=O)(=O)n1cc(-c2ccc(Oc3ccccc3)cc2)c2c(N)ncnc21` [Example 173, 7-isopropylsulphonyl-5-(4-phenoxyphenyl)-7H-pyrrolo[2,3-d]pyrimidin-4-ylamine] returned a melting point of 162 to 162.5 °C.

The compound `Nc1ncnc2c1c(-c1ccc(Oc3ccccc3)cc1)cn2C1CC2CC(O)CC2C1` (centres unmarked) [Example 174, 7-[4-amino-5-(4-phenoxyphenyl)-7H-pyrrolo[2,3-d]pyrimidin-7-yl]bicyclo[3.3.0]octan-3-ol] had a melting point of 193 to 194 °C.

For `Nc1ncnc2c1c(-c1ccc(Oc3ccccc3)cc1)cn2C1CCC(O)CC1` (centres unmarked) [Example 175, 4-[4-amino-5-(4-phenoxyphenyl)-7H-pyrrolo[2,3-d]pyrimidin-7-yl]cyclohexanol], the melting point was 199 to 200 °C.
